47 compounds from the supplement of paper PMC3974653 can be followed below.

Assay [1] has as its system MTT (mouse pheochromocytoma). Kind of assay: IC50 of cell viability (ATP content); AC50 where efficacy is positive. Particulars: (24 or 48 h).
Assay [2] concerns MTT (mouse pheochromocytoma). Kind of assay: efficacy (maximal response) relative to doxorubicin = -100% and DMSO = 0%; higher = less inhibition of viability. To be noted: (24 or 48 h).

Structures are written as SMILES. Where “and” joins values, the source holds several entries; their conditions need not be identical. Identical values can stand only once. Counter-ions that a name gives are not always drawn.

For `CC(=O)Nc1ccc(NC(=S)NC(=O)c2ccc(C(C)(C)C)cc2)cc1`, in assay [1], the “IC50 of cell viability” value was 2.66 µM. The efficacy in assay [2] was -56%.
On the same counts, the results for `Nc1ncn(C2C[C@H](O)[C@@H](CO)O2)c(=O)n1` (some centres undefined) are 0.0668 µM and -51.6%.
On to `O=C(CCl)c1ccc(Cl)cc1Cl` [2,2',4'-Trichloroacetophenone], for which the “IC50 of cell viability” value in assay [1] was 8.63 µM and 3.76 µM. In addition, the efficacy in assay [2] was -84.4% and -71.5%.
Consider `F\C1=C\NC(=O)NC1=O` [5-Fluorouracil], for which the “IC50 of cell viability” value in assay [1] is 11.9 µM. In addition, the efficacy in assay [2] was -67.4%.
Take `Sc1ncnc2[nH]cnc12` [6-Mercaptopurine monohydrate]: the “IC50 of cell viability” value in assay [1] is 21.1 µM. For the same compound, in assay [2], the efficacy is -78.1%.
As to `NC/1=N/C(S)C/2\N=C/NC2=N1` (centres undefined) [6-Thioguanine (6-TG)], the “IC50 of cell viability” value in assay [1] stood at 21.1 µM. The efficacy in assay [2] was -78.6%.
For `Cl.Nc1c2ccccc2nc2ccccc12.O` [9-Aminoacridine HCl H2O], in that order: 21.1 µM and -110%.
Consider `C=CCNC1=C2C[C@@H](C)C[C@H](OC)[C@H](O)[C@@H](C)/C=C(\C)[C@H](OC(N)=O)[C@@H](OC)C=C/C=C(\C)C(=O)NC(=CC1=O)C2=O` [17-Allylamino-geldanamycin], for which, in assay [1], the “IC50 of cell viability” value was determined as 4.22 µM. The efficacy in assay [2] is -80.6%.
For `Cl.CC(C)(C)[C@]1(O)CC[N@@]2C[C@H]3C4=C(CCC5=CC=CC(=C35)[C@@H]2C1)C=CC=C4` [(?)-Butaclamol hydrochloride], in that order: 21.1 µM and -70.8%.
On the same counts, the results for `CC[C@@]1(O)C[C@H](O[C@H]2C[C@@H](N(C)C)[C@@H](O[C@H]3C[C@@H](O)[C@@H](O[C@H]4CCC(=O)[C@@H](C)O4)[C@@H](C)O3)[C@@H](C)O2)c2c(cc3c(c2O)C(=O)c2c(O)cccc2C3=O)[C@H]1C(=O)OC` [ACLARUBICIN HYDROCHLORIDE] are 2.11 µM and -41.5%.
On the same counts, the results for `C[n+]1c2cc(N)ccc2cc2ccc(N)cc21.[Cl-]` [ACRIFLAVINIUM HYDROCHLORIDE] are 10.6 µM and -50.3%.
As for `C[S+](CC[C@H](N)C(=O)O)C[C@H]1O[C@@H](n2cnc3c(N)ncnc32)[C@H](O)[C@@H]1O` (some centres undefined) [ADEMETIONINE], the “IC50 of cell viability” value in assay [1] was 21.1 µM. In addition, the efficacy in assay [2] was -49.1%.
On the same counts, the results for `O=S(=O)([O-])c1cc(O)c2c(/N=N/c3ccc(Nc4ccccc4)c4c(S(=O)(=O)[O-])cccc34)cc(S(=O)(=O)[O-])cc2c1` [ANAZOLENUM NATRICUM] are 2.37 µM and -33.8%.
For `CC[NH+](CC)CCCN(c1ccccc1)C1Cc2ccccc2C1` [APRINDINE HYDROCHLORIDE], in that order: 26.6 µM and -107%.
For `COc1ccc(CCN2CCC(Nc3nc4ccccc4n3Cc3ccc(F)cc3)CC2)cc1` [ASTEMIZOLE], in that order: 16.8 µM and -74.8%.
Consider `CCCSc1ccc2[nH]c(NC(=O)OC)nc2c1` [Albendazole], for which the “IC50 of cell viability” value in assay [1] amounted to 0.718 µM. In addition, the efficacy in assay [2] is -57.9%.
Consider `N=c1ccn2c(n1)O[C@H]1[C@H](O)[C@@H](CO)O[C@H]12` [Ancitabina], for which, in assay [1], the “IC50 of cell viability” value is 2.37 µM. In assay [2], the efficacy is -68.2%.
For `C[C@@H]1CC[C@H]2[C@@H](C)C(=O)O[C@@H]3O[C@]4(C)CC[C@@H]1[C@@]32OO4` [Artemisinin], in that order: 10.6 µM and -62%.
For `CC[P](CC)(CC)=[Au][S][C@@H]1OC(COC(C)=O)[C@@H](OC(C)=O)[C@H](OC(C)=O)C1OC(C)=O` (some centres undefined) [Auranofin], in that order: 2.66 µM and -86.7%.
As to `NC/1=N/C(=O)N(/C=N1)[C@@H]2O[C@H](CO)[C@@H](O)[C@H]2O` [Azacitidine], in assay [1], the “IC50 of cell viability” value was determined as 1.33 µM. Further, in assay [2], the efficacy is -71.2%.
On the same counts, the results for `C/C(=C(/CCOC(=O)C(C)C)SS/C(CCOC(=O)C(C)C)=C(\C)N(C=O)Cc1cnc(C)nc1N)N(C=O)Cc1cnc(C)nc1N` [BISIBUTHIAMINE] are 21.1 µM and -43.4%.
On the same counts, the results for `CC(C)C[C@@H](NC(=O)[C@@H](Cc1ccccc1)NC(=O)c1cnccn1)B(O)O` [BORTEZOMIB] are 0.596 µM and -74.6%.
On the same counts, the results for `CC(C)(Cc1c[nH]c2ccccc12)NCC(O)COc1ccccc1C#N` (centres undefined) [BUCINDOLOLUM] are 11.9 µM and -41.7%.
Turning to `[H]/N=C(/c1ccc(OCCCCCC)c2ccccc12)N(CCCC)CCCC` [BUNAMIDINE HYDROCHLORIDE], the “IC50 of cell viability” value in assay [1] is 18.8 µM. The efficacy in assay [2] was -96.3%.
On the same counts, the results for `CC(C)(C)CC(C)(C)c1ccc(OCCOCC[N+](C)(C)Cc2ccccc2)cc1` [Benzethonium chloride] are 10.6 µM and -94.4%.
For `COc1ccc2cc3[n+](cc2c1OC)CCc1cc2c(cc1-3)OCO2` [Berberine chloride], the “IC50 of cell viability” value in assay [1] is 4.22 µM. Further, the efficacy in assay [2] is -53.9%.
For `CCN(CC)C1=CC=C(C=C1)C(\C2=CC=CC=C2)=C3\C=C/C(/C=C3)=[N+](\CC)CC` [Brilliant Green], in that order: 1.68 µM and -108%.
On the same counts, the results for `O=[N+]([O-])C(Br)(CO)CO` [Bronopol] are 15 µM and -58.4%.
Take `CC1=CC(=CC=C1N)C(\C2=CC=C(N)C=C2)=C3/C=CC(=N)C=C3` [C.I. Basic Violet 14, free base]: in assay [1], the “IC50 of cell viability” value was determined as 2.37 µM. Moreover, in assay [2], the efficacy is -47.4%.
On the same counts, the results for `CC(C)OC(=O)Nc1ccc2[nH]c(-c3cscn3)nc2c1` [CAMBENDAZOLE] are 8.41 µM and -45.2%.
`CCCCCCNC(=O)N1\C=C(F)/C(=O)NC1=O` [CARMOFUR]: the “IC50 of cell viability” value in assay [1] was determined as 1.88 µM. Moreover, the efficacy in assay [2] is -56.9%.
Turning to `CC(=O)[C@]1(O)Cc2c(O)c3c(c(O)c2[C@@H](O[C@H]2C[C@H](N)[C@H](O)[C@H](C)O2)C1)C(=O)c1c(O)cccc1C3=O` [CARUBICINUM], the “IC50 of cell viability” value in assay [1] came to 2.99 µM. For the same compound, the efficacy in assay [2] was -59.2%.
On the same counts, the results for `CCCCCCCCCCCCCCCC[N+](C)(C)Cc1ccccc1.O.[Cl-]` [CETALKONIUM CHLORIDE] are 15 µM and -56.9%.
For `CCCCCCCCCCCCCCCCOCCOCCOCCOCCOCCOCCOCCOCCOCCOCCOCCOCCOCCOCCOCCOCCOCCOCCOCCOCCO` [CETOMACROGOL EMULSIFYING WAX], in that order: 16.8 µM and -80.5%.
On the same counts, the results for `CN/C(=N/C#N)NCCSCc1nc[nH]c1C` [CIMETIDINE] are 13.3 µM and -40.4%.
`Cc1c(C(=O)O)c(O)cc2c1C(=O)c1c(O)c([C@H]3O[C@H](CO)[C@@H](O)[C@H](O)[C@H]3O)c(O)c(O)c1C2=O` [COCHINEAL]: the “IC50 of cell viability” value in assay [1] came to 16.8 µM. The efficacy in assay [2] was -45.4%.
For `C[C@@]12C(=O)OC(=O)[C@@]1(C)[C@H]1CC[C@H]2O1` [Cantharidin], in that order: 1.28 µM and -39%.
On the same counts, the results for `ClC(Cl)(Cl)SN1C(=O)C2C\C=C/CC2C1=O` (centres undefined) [Captan] are 2.99 µM and -65.8%.
For the compound `CC(=O)C1(O)Cc2c(O)c3c(c(O)c2C(OC2CC(N)C(O)C(C)O2)C1)C(=O)c1c(O)cccc1C3=O` (centres undefined) [Carminomycin], in assay [1], the “IC50 of cell viability” value stood at 2.66 µM. The efficacy in assay [2] was -48.5%.
For `CCCCCCCCCCCCCCCC[n+]1ccccc1` [Cetylpyridinium bromide], in that order: 10.6 µM and -96.5%.
On the same counts, the results for `CCCCCCCCCCCCCCCC[N+](C)(C)C` [Cetyltrimethylammonium bromide] are 13.3 µM and -89.1%.
For `Cc1nc2ccccc2n1Cc1ccc(Cl)cc1` [Chlormidazole], in that order: 13.3 µM and -59%.
Regarding `CN(C)C1=CC=C(C=C1)C(C2=CC=C(C=C2)N(C)C)=C/3\C=C/C(/C=C3)=[N+](C)C` [Chlorure de methylrosanilinum], in assay [1], the “IC50 of cell viability” value turned out to be 23.7 µM. The efficacy in assay [2] is -111%.
Consider `CC/1=C/C(=O)N(O)/C(=C1)C2CCCCC2` [Ciclopirox ethanolamine], for which the “IC50 of cell viability” value in assay [1] is 4.53 µM. The efficacy in assay [2] is -84.9%.
For `COC/1=C/C=C2\C(=C/C1=O)[C@H](CCC3=CC(=C(OC)C(=C23)OC)OC)NC(C)=O` [Colchicine], in that order: 0.473 µM and -84.8%.
On the same counts, the results for `COc1cc(/C=C/C(=O)CC(=O)/C=C/c2ccc(O)c(OC)c2)ccc1O` [Curcumin] are 16.8 µM and -79.7%.
On the same counts, the results for `COC(=O)[C@H]1[C@H]2C[C@@H]3c4[nH]c5ccccc5c4CCN3C[C@H]2C[C@@H](OC(=O)c2cc(OC)c(OC)c(OC)c2)[C@@H]1OC` [DESERPIDINE] are 13.3 µM and -92.6%.
